Drawing on ChEMBL document CHEMBL1129544, “A structure-activity relationship study of novel phenylacetamides which are sodium channel blockers” (J Med Chem, 1996), this text covers IC50 for 23 molecules.

SMILES strings stand for the structures.

This assay deals with Sodium channel protein type 2 subunit alpha (Rattus norvegicus, UniProt P04775). Description: Inhibitory activity against type IIA sodium channel in CNaIIA-1 cell line expressed in CHO cells. Format: cell-based.
Chain of Sodium channel protein type 2 subunit alpha (P04775 whole entry): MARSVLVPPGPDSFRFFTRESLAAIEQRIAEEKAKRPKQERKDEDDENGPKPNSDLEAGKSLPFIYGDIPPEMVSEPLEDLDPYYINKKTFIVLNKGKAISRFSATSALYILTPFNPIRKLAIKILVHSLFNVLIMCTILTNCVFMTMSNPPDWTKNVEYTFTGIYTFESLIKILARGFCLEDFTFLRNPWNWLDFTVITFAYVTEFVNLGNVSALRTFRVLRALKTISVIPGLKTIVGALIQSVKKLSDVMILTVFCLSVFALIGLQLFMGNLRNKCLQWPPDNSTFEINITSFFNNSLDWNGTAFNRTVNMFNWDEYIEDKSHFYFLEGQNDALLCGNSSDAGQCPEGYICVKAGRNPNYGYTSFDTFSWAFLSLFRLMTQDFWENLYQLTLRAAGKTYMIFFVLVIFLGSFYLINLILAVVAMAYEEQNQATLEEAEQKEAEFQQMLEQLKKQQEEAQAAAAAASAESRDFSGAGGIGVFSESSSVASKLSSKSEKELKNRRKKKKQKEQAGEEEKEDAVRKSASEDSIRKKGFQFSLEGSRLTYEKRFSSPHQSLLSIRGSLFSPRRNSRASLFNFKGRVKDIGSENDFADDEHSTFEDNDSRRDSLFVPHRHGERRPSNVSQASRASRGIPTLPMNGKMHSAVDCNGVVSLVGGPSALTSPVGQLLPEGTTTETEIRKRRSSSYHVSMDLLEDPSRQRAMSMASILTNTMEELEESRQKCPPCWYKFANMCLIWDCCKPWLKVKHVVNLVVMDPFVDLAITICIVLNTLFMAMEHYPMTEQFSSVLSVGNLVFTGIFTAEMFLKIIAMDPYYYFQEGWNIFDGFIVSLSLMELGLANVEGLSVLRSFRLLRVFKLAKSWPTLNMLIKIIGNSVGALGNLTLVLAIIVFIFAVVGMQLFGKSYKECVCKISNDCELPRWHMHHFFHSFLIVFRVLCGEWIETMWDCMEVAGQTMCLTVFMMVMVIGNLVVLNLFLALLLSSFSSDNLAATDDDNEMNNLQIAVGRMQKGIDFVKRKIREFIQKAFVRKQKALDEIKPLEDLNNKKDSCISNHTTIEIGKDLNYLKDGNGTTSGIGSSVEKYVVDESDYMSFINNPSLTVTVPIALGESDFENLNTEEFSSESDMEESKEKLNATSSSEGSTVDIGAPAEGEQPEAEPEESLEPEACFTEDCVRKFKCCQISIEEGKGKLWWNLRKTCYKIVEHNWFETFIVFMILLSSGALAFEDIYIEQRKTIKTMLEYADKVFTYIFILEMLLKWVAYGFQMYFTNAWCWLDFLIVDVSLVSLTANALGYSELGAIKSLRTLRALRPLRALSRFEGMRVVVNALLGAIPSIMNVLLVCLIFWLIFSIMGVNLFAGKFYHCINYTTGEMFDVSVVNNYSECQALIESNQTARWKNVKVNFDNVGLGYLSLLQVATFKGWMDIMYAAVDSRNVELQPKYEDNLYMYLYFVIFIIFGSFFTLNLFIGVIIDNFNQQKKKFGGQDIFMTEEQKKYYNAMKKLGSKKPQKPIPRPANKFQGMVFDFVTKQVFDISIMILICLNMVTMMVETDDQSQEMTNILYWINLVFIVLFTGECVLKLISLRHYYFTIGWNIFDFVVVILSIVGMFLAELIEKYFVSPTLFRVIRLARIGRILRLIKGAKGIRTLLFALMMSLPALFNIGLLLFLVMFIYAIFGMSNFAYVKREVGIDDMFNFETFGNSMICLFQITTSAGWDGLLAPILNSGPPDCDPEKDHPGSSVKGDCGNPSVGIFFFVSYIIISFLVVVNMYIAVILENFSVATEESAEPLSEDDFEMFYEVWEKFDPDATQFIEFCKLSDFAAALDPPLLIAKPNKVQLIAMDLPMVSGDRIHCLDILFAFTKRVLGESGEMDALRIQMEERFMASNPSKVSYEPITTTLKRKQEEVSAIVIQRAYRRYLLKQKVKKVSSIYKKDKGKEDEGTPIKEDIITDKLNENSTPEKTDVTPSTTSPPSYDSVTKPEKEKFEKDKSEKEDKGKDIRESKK

The molecule `CC(CNC(=O)C(c1ccccc1)c1ccccc1)CN1CCC(c2ccccc2)CC1` (stereo not drawn) registered an IC50 of 1.5 µM.
Regarding `CN1CCCC1CCNC(=O)C(c1ccccc1)c1ccccc1` (stereo not drawn), the IC50 was determined as 32 µM.
Regarding `O=C(NCCCN1CCC(O)(c2ccccc2)CC1)C(c1ccccc1)c1ccccc1`, the midpoint of inhibition, the IC50, lay at 2.2 µM.
For the molecule `O=c1[nH]c2ccccc2n1C1CCN(CCCC(c2ccc(F)cc2)c2ccc(F)cc2)CC1` [PIMOZIDE], the IC50 amounted to 0.34 µM.
In turn, `CN(C)CCCNC(=O)C(c1ccccc1)c1ccccc1` yielded an IC50 of 20 µM.
`COc1ccccc1N1CCN(CCCNC(=O)C(c2ccccc2)c2ccccc2)CC1` had a concentration for half-maximal inhibition (IC50) of 1.2 µM.
Molecule `O=C(NCCCN1CCC(c2ccccc2)CC1)C(c1ccccc1)c1ccccc1` showed an IC50 of 1.1 µM.
Consider `O=C(NCCCN1CCC(Cc2ccccc2)CC1)C(c1ccccc1)c1ccccc1`, for which the IC50 came out at 0.6 µM.
In turn, `O=C(NCCCCN1CCCCC1)C(c1ccccc1)c1ccccc1` had an IC50 of 10 µM.
The molecule `CN1CCN(CCCNC(=O)C(c2ccccc2)c2ccccc2)CC1` displayed an IC50 greater than 200 µM.
In the case of `CC1CN(CCCNC(=O)C(c2ccccc2)c2ccccc2)CC(C)O1` (stereo not drawn) it was 2.7 µM; in that of `O=C(NCCCN1CCCCC1)C(c1ccccc1)c1ccccc1`, 5.3 µM.
Turning to `CC1CCC(C)N1CCCNC(=O)C(c1ccccc1)c1ccccc1` (stereo not drawn), the IC50 is 4.6 µM.
For the molecule `O=C(NC1CN2CCC1CC2)C(c1ccccc1)c1ccccc1` (stereo not drawn), the midpoint of inhibition, the IC50, lay at 95 µM.
The value for `NCCCNC(=O)C(c1ccccc1)c1ccccc1` was 40 µM.
Consider `O=C(NCCCN1CCC(n2c(=O)[nH]c3ccccc32)CC1)C(c1ccccc1)c1ccccc1`, for which the IC50 worked out at 0.72 µM.
As to `O=C(NCCCN1CCC(Oc2ccccc2)CC1)C(c1ccccc1)c1ccccc1`, the IC50 was found to be 1.4 µM.
`CN(C)CCCN(C)C(=O)C(c1ccccc1)c1ccccc1` gave an IC50 greater than 200 µM.
In the case of `O=C(NCCCN1CCOCC1)C(c1ccccc1)c1ccccc1` it was 6.5 µM; in that of `CN(CCCNC(=O)C(c1ccccc1)c1ccccc1)Cc1ccccc1`, 1.2 µM; in that of `O=C(NCCN1CCCCC1)C(c1ccccc1)c1ccccc1`, 7.2 µM.
Molecule `O=C(NCCCN1CCN(Cc2ccccc2)CC1)C(c1ccccc1)c1ccccc1` registered an IC50 of 0.7 µM.
`CCN(CC)CCCNC(=O)C(c1ccccc1)c1ccccc1` yielded an IC50 of 4.4 µM.
